Results reported in patent publication US11717502B2, “Blood flow improver” (WAKUNAGA PHARMACEUTICAL CO., LTD., priority 2017, dated 2023).

What was measured:
[1] = tested on: water immersion stressed rats; experiment: Actions against depressed tail subcutaneous blood flow in water immersion stressed rats, compared between S1PC and SAC (Test Example 2); assay type: in vivo, male Wistar rats; settings: for Effect of improving the tail skin blood flow with respect to the control group: 6.5 mg/kg single oral administration two hours before water immersion stress, one hour after end of stress, Bonferroni correction
Method: Actions against Depressed Tail Subcutaneous Blood Flow in Water Immersion Stressed Rats, Compared between S1PC and SAC
(§1) Seven-week-old male Wistar rats purchased from Japan SLC, Inc. (Hamamatsu City) were grouped by twelves, and preliminarily bred for two weeks. During preliminary breeding, handling was performed on the rats, and the rats were bred in a constant environment at a temperature of 23±1° C., a humidity of 50±10%, and a light/dark cycle of 12 hours (light period: 7 to 19 o'clock), and freely fed with artificial diet (CE-2, from CLEA Japan, inc.) and sterilized tap water.
The administration was performed by forced oral administration using a disposable feeding needle, and the fluid volume to be administered was 10 mL per kilogram of body weight of rat. As a sample to be administered, approximately 15 mg each of S1PC (a cis/trans mixture) manufactured in Production Example 2 and SAC were precisely weighed, and dissolved in 15 mL of purified water. These solutions were used as a stock solution. The solutions were properly diluted to give 6.5 mg/kg (body weight of rat) of dosage and the diluted solution was orally administered to each rat a single time. […]
The rats were allowed to stand still in a room conditioned at a temperature of 20±0.5° C. for 30 minutes or longer, and attached with a probe for blood flow measurement using a binding tape at a position 5 cm away from the base of tail under isoflurane anesthesia. The blood flow was measured for 5 minutes using a laser tissue blood flowmeter (FLO-C1, from Omegawave Inc.). Average blood flow for 3 minutes during which the stable blood flow was shown was determined as the tail skin blood flow of the individuals. The blood flow before water immersion was measured, and then S1PC, SAC or purified water was orally administered to the rats. […] The tail skin blood flow after the water immersion stress was measured one hour after the end of water immersion stress.
Measured values were given […] average±standard error. […]

[2] = tested on: water immersion stressed rats; experiment: Action of S1PC against decrease in tail skin blood flow in water immersion stressed rats (Test Example 1); assay type: in vivo, male Wistar rats
Method: Action of S1PC Against Decrease in Tail Skin Blood Flow in Water Immersion Stressed Rate
as §1, with “Eight-week-old” for “Seven-week-old”, “nines,” for “twelves,”
The administration was performed by forced oral administration using a disposable feeding needle, and the fluid volume to be administered was 10 mL per kilogram of body weight of rat. As a sample to be administered, approximately 15 mg of S1PC (a cis/trans mixture) manufactured in Production Example 2 was precisely weighed, and dissolved in 15 mL of purified water. This solution was used as a stock solution. The solution was properly diluted to give 6.5 mg/kg (body weight of rat) of dosage and the diluted solution was orally administered to each rat a single time. To each rat of a control group, a solvent (purified water) was orally administered in the same manner as described above.
The rats were allowed to stand still in a room conditioned at a temperature of 20±0.5° C. for 30 minutes or longer, and attached with a probe for blood flow measurement using a binding tape at a position 5 cm away from the base of tail under isoflurane anesthesia. The blood flow was measured for 5 minutes using a laser tissue blood flowmeter (FLO-C1, from Omegawave Inc.). Average blood flow for 3 minutes during which the stable blood flow was shown was determined as the tail skin blood flow of the individual. The blood flow before water immersion was measured, and then S1PC or purified water was orally administered to the rats. Two hours after the administration, the rats were immersed up to the xiphoid and below in water at 15° C. for 10 minutes, using a stainless-steel restraint cage. The tail skin blood flow after the water immersion stress was measured one hour after the end of water immersion stress.
Measured values were given as average±standard error.
The t-test was used for examination.

Compound | Effect of improving the tail skin blood flow with respect to the control group [1] | Tail skin blood flow, S1PC group compared with SAC group ([1]; 6.5 mg/kg single oral dose each, one hour after end of water immersion stress, p<0.01) | Effect of improving the tail skin blood flow with respect to the control group ([2]; 6.5 mg/kg single oral administration two hours before water immersion stress, t-test) | Degree of decrease in tail skin blood flow due to water immersion stress ([2]; 6.5 mg/kg single oral administration two hours before water immersion stress, versus control group) | Tail skin blood flow, one hour after end of water immersion stress ([2]; 6.5 mg/kg single oral dose two hours before water immersion (15° C., 10 minutes), average ± standard error) | Tail skin blood flow, before water immersion stress ([2]; baseline before oral administration, average ± standard error, laser tissue blood flowmeter)
CC=CSC[C@H](N)C(=O)O [S1PC, S-1-propenylcysteine] | showed a significant effect of improving the tail skin blood flow | significantly higher value of tail skin blood flow, as compared with the SAC group | significant effect of improving the tail skin blood flow | smaller as compared with the control group | 2.21 ± 0.15 mL/min/100 g | 2.76 ± 0.15 mL/min/100 g
C=CCSC[C@H](N)C(=O)O [SAC, S-allylcysteine, reference compound] | did not show a significant effect of improving the tail skin blood flow | – | – | – | – | –
